Laboratory results reported in publication PMC8232766, “Chemical Composition and Immunomodulatory Activity of Essential Oils from Rhododendron albiflorum” (Molecules, 2021).

Assays:
human neutrophils [1] = details: cited from earlier work; for Inhibition of agonist-induced neutrophil Ca2+ mobilization: previous studies; for Inhibition of agonist-induced Ca2+ mobilization in human neutrophils: found previously
human neutrophils [2] = system: human neutrophils; design: method as in PMID 27586050, PMID 25959257; details: direct effect; previous studies; cited from earlier work
[3] = system: human C20 microglial cells; assay: Inhibition of fMLF-induced Ca2+ influx in C20 microglial cells; format: cell-based; details: 10 min, pure compounds, 10 min incubation, induced by 10 μM fMLF
Method: (§1) Human C20 microglial cells were kindly provided by Dr. David Alvarez-Carbonell (Department of Molecular Biology and Microbiology, Case Western Reserve University, Cleveland, OH, USA); these are immortalized primary human microglial cells that maintain characteristics of primary microglial cells. C20 cells were grown at 37 °C and 5% CO2 in DMEM:F12 medium supplemented with 10% FBS, 2.5 mM L-glutamine, 110 mg/L sodium pyruvate, 15 mM HEPES, 100 μg/mL normocin, 100 μg/mL streptomycin, and 100 U/mL penicillin.
(§2) For analysis of Ca^2+ influx in C20 microglial cells, the cells were plated in 96-well black, clear bottom plates at 10^4 cells/well in DMEM/F12 medium containing 10% FBS. The cells were treated with 200 nM PMA for 24 h, and the medium was changed every day for 5 days. On day 5, the cells were loaded with FLIPR Calcium 5 (Molecular Devices) at a volume ratio of 1:1 for 30 min at 37 °C in the dark. The plates were then placed in a FlexStation 3 fluorometer, and basal fluorescence was measured (λex = 485 nm, λem = 538 nm). Essential oils or individual compounds of interest were added manually (final concentration of DMSO was 1%), and fluorescence was monitored for 2 min to assess the direct effects of these treatments on [Ca^2+]i. After a 10 min incubation at 37 °C, the fluorescence baseline was recorded again, and 10 µM fMLF was added to evaluate inhibitory effects on agonist-induced [Ca^2+]i. Responses were normalized to the response induced by 10 µM fMLF.
(§3) For all Ca^2+ influx experiments, curve fitting (at least five or six points) and calculation of median effective concentration values (EC50 or IC50) were performed by nonlinear regression analysis of the dose–response curves generated using Prism 7 (GraphPad Software, Inc., San Diego, CA, USA).

FPR2-HL60 cells = biological target: T1, FPR2-HL60 cells (Homo sapiens, UniProt P25090); assay: Inhibition of WKYMVM-induced Ca2+ influx in FPR2-HL60 cells; format: cell-based; details: pure compounds; 10 min preincubation; induced by 5 nM WKYMVM
T1 construct: expressed in transfected cells
T1 sequence (P25090 1-351): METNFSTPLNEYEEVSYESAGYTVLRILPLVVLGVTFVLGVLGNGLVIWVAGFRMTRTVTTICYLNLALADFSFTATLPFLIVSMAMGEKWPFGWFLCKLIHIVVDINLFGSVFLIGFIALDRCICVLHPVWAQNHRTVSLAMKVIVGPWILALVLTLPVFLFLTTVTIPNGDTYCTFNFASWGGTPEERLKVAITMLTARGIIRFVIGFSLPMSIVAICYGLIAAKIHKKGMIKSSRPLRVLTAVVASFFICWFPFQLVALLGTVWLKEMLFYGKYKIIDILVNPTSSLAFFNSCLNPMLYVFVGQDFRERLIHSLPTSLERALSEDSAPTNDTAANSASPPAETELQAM
Method: (§4) Human promyelocytic leukemia HL60 cells stably transfected with FPR1 (FPR1-HL60 cells) or FPR2 (FPR2-HL60 cells) were kindly provided by Dr. Marie-Josephe Rabiet, INSERM, Grenoble, France. These cells were cultured in RPMI 1640 medium containing 10% heat-inactivated fetal calf serum, 10 mM HEPES, 100 μg/mL streptomycin, 100 U/mL penicillin, and G418 (1 mg/mL). G418 was removed before assays were performed.
(§5) Changes in intracellular Ca^2+ concentrations ([Ca^2+]i) in human neutrophils were measured with a FlexStation 3 scanning fluorometer (Molecular Devices), as previously described. To assess the direct effects of test compounds or pure essential oils on Ca^2+ influx, the compounds/oils were added to the wells (final concentration of DMSO was 1%), and changes in fluorescence were monitored (λex = 485 nm, λem = 538 nm) every 5 s for 240 s at room temperature after addition of the test compound. To evaluate inhibitory effects of the compounds on FPR1/FPR2-dependent Ca^2+ influx, the compounds were added to the wells (final concentration of DMSO was 1%) with cells (human neutrophils or FPR1/FPR2 HL60 cells). The samples were preincubated for 10 min, followed by addition of 5 nM fMLF (for human neutrophils or FPR1-HL60 cells) or 5 nM WKYMVM (for FPR2-HL60 cells). The maximum change in fluorescence, expressed in arbitrary units over baseline, was used to determine the agonist response. Responses were normalized to the response induced by 5 nM fMLF or 5 nM WKYMVM, which were assigned as 100%.
as §3

human neutrophils [4] = assay: Ca2+ influx (direct effect) in human neutrophils; format: cell-based; details: pure compounds, direct effect on [Ca2+]i, mean ± SD of three experiments
Excerpt: (§6) For isolation of human neutrophils, blood was collected from healthy donors in accordance with a protocol approved by the Institutional Review Board at Montana State University (Protocol #MQ041017), as described previously. Isolated neutrophils were washed and resuspended in HBSS^–. Neutrophil preparations were routinely >95% pure and >98% viable. Neutrophils were obtained from multiple different donors (n = 8); however, the cells from different donors were never pooled during experiments.
as §5, §3

FPR1-HL60 cells = biological target: T2, FPR1-HL60 cells (Homo sapiens, UniProt P21462); assay: Inhibition of fMLF-induced Ca2+ influx in FPR1-HL60 cells; format: cell-based; details: pure compounds; 10 min preincubation; induced by 5 nM fMLF
T2 construct: expressed in transfected cells
T2 sequence (P21462 1-350): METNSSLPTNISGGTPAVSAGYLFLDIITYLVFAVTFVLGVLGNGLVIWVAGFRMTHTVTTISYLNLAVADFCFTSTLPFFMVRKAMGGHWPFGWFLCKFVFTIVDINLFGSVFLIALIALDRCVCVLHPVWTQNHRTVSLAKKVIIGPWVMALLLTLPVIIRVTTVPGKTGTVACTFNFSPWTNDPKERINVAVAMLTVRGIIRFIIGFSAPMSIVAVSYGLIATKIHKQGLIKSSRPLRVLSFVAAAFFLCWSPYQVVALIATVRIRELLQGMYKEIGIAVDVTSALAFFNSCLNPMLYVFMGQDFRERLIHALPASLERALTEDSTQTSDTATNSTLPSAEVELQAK
Method: as §4, §5, §3

human neutrophils [5] = assay: Inhibition of fMLF-induced Ca2+ influx in human neutrophils; format: cell-based; details: pure compounds, 10 min preincubation, induced by 5 nM fMLF
Excerpt: as §6, §5, §3

human neutrophils [6] = assay: Neutrophil chemotaxis assay (fMLF-induced); format: cell-based; details: pure compounds, chemotaxis induced by 1 nM fMLF
Excerpt: as §6
Human neutrophils were resuspended in HBSS^+ containing 2% (v/v) heat-inactivated fetal bovine serum (2 × 10^6 cells/mL), and chemotaxis was analyzed in 96-well ChemoTx chemotaxis chambers (Neuroprobe, Gaithersburg, MD), as described previously. Curve fitting (at least eight to nine points) and calculation of median effective concentration values (IC50) were performed by nonlinear regression analysis of the dose-response curves generated using GraphPad Prism 8.

[7] = system: human C20 microglial cells; assay: Ca2+ influx (direct effect) in C20 microglial cells; format: cell-based; details: pure compounds, direct effect on [Ca2+]i, mean ± SD of three experiments
Method: as §1, §2, §3

In the case of `C=C1CCC2(C(C)C)CC12` (centres unmarked) [sabinene], the “Inhibition of agonist-induced neutrophil Ca2+ mobilization” value (human neutrophils [1]) is given as “no inhibitory effect” and the “Activation of neutrophil Ca2+ mobilization” value (shortened to “Activation”) (human neutrophils [2]) is given as “no activating effects”.
In the case of `CC1=CCC(O)(C(C)C)CC1` (centres unmarked) [terpinen-4-ol], the “Inhibition of agonist-induced neutrophil Ca2+ mobilization” value (human neutrophils [1]) is given as “no inhibitory effect” and the “Activation” value (human neutrophils [2]) is given as “no activating effects”.
For `CC1=CCC(=C(C)C)CC1` [terpinolene], the “Inhibition of agonist-induced neutrophil Ca2+ mobilization” value (human neutrophils [1]) is listed as “no inhibitory effect” and the “Activation” value (human neutrophils [2]) is listed as “no activating effects”.
In the case of `C/C1=C\CC/C(C)=C/CC(C)(C)/C=C/C1` [α-humulene], the “Inhibition of agonist-induced Ca2+ mobilization in human neutrophils” value (human neutrophils [1]) is listed as “inhibited”.
In the case of `CC1=CCC2CC1C2(C)C` (stereo not drawn) [α-pinene], the “Inhibition of agonist-induced neutrophil Ca2+ mobilization” value (human neutrophils [1]) is given as “no inhibitory effect” and the “Activation” value (human neutrophils [2]) is given as “no activating effects”.
In the case of `CC1=CC=C(C(C)C)CC1` [α-terpinene], the “Inhibition of agonist-induced neutrophil Ca2+ mobilization” value (human neutrophils [1]) is listed as “no inhibitory effect” and the “Activation” value (human neutrophils [2]) is listed as “no activating effects”.
In the case of `C=C1C=CC(C(C)C)CC1` (stereo not drawn) [β-Phellandrene, β-phellandrene], the IC50 [3] is reported as greater than 50 µM, the “FPR2-HL60 Ca2+ Influx IC50” value (FPR2-HL60 cells) is reported as “no effect” and the IC50 (FPR2-HL60 cells) is reported as greater than 50 µM. The EC50 (human neutrophils [4]; Homo sapiens, Neutrophil) was greater than 50 µM, the “Ca2+ Influx Neutrophils EC50” value (human neutrophils [4]) was “inactive” and the “FPR1-HL60 Ca2+ Influx IC50” value (FPR1-HL60 cells) was “no effect”. For the same compound, the IC50 (FPR1-HL60 cells) was greater than 50 µM, the IC50 (human neutrophils [5]; Homo sapiens, Neutrophil) was greater than 50 µM and the “Neutrophils Ca2+ Influx IC50” value (human neutrophils [5]) was “no effect”. For the same compound, the IC50 (human neutrophils [6]; Homo sapiens, Neutrophil) was greater than 50 µM, the “Neutrophils Chemotaxis IC50” value (human neutrophils [6]) was “inactive” and the EC50 ([7]; Homo sapiens) was greater than 50 µM. For the same compound, the “Ca2+ Influx C20 cells EC50” value [7] was “inactive”.
In the case of `C=C1CC/C=C(\C)CC[C@@H]2[C@@H]1CC2(C)C` [β-caryophyllene], the “Inhibition of agonist-induced Ca2+ mobilization in human neutrophils” value (human neutrophils [1]) is given as “inhibited”.
For `C=C1CCC2CC1C2(C)C` (stereo not drawn) [β-pinene], the “Inhibition of agonist-induced neutrophil Ca2+ mobilization” value (human neutrophils [1]) is given as “no inhibitory effect” and the “Activation” value (human neutrophils [2]) is given as “no activating effects”.
For `CC1=CCC(C(C)C)=CC1` [γ-terpinene], the “Inhibition of agonist-induced neutrophil Ca2+ mobilization” value (human neutrophils [1]) is listed as “no inhibitory effect” and the “Activation” value (human neutrophils [2]) is listed as “no activating effects”.
